Legend:
human M A1AT = target: T1, human M A1AT (Homo sapiens, UniProt P01009); assay: A1AT cell secretion assay using HEK-M cells (ELISA); assay type: cell-based; conditions: 10 μM, 48 h
T1 construct: expressed in transfected cells; host or cells: HEK-M (HEK-EBNA cells containing the M A1AT plasmid)
Procedure: HEK-M cells, a human embryonic kidney cell line stably transfected with the human M A1AT gene, were plated into 96 well plates (3.0×10^5 cells/ml with 200 μl of media/well) overnight at 37° C. in a humidified atmosphere containing 5% CO2. Following incubation cells were washed with 200 μl serum-free media three times and media was replaced with serum-free media containing either vehicle, 10 μM suberanilohydroxamic acid (SAHA) or a compound of the invention (at 10 μM) in replicates of six for 48 h in a 37° C. incubator in a final volume of 200 μl. […]
Briefly, a 96 well plate was coated with human A1AT capture antibody overnight at room temperature (1:180 dilution from stock, 100 μl final volume/well). […] After which, 50 μl stop solution (2M H2SO4) was added and optical density (OD) of each well was read at 450 nm with 570 nm blank subtracted from each well using a microplate reader. A 4 parameter logistic curve was constructed using GraphPad Prism 7 and A1AT concentrations were determined in each sample by interpolation from a standard curve and multiplying by the appropriate dilution factor.
The amount of A1AT secreted from transfected HEK-EBNA cells into the media was measured by ELISA. […]

CYP 1A2 = target: T2, CYP 1A2 (Homo sapiens, UniProt P05177); assay: CYP inhibition, E. coli CYPEX membranes; assay type: in vitro ADME; conditions: specific probe substrates
T2 construct: purchased CYPEX; host or cells: E. coli
T2 sequence (P05177 1-516): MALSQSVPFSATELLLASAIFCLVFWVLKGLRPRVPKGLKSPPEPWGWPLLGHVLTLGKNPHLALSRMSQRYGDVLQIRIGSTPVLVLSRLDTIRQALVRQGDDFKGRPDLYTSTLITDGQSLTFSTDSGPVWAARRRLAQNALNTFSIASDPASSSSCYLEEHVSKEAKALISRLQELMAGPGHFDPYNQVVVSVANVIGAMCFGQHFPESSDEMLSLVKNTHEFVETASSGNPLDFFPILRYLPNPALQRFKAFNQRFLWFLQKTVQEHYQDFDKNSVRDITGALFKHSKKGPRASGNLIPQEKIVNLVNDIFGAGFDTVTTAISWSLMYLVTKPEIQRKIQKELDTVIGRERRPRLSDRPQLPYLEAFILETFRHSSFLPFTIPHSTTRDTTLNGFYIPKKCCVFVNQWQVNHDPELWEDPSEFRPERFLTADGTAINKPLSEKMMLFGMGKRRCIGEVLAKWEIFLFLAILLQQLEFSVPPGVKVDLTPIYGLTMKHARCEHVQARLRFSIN
Procedure: (§1) Using E. coli CYPEX membranes in combination with specific probe substrates, the inhibition of individual CYPs by compounds of the invention using the method described in Weaver et al., 2003, Drug Metab Dispos 31:7, 955-966 was assessed.

CYP 2C19 = target: T3, CYP 2C19 (Homo sapiens, UniProt P33261); assay: CYP inhibition, E. coli CYPEX membranes; assay type: in vitro ADME; conditions: specific probe substrates
T3 construct: purchased CYPEX; host or cells: E. coli
T3 sequence (P33261 whole entry): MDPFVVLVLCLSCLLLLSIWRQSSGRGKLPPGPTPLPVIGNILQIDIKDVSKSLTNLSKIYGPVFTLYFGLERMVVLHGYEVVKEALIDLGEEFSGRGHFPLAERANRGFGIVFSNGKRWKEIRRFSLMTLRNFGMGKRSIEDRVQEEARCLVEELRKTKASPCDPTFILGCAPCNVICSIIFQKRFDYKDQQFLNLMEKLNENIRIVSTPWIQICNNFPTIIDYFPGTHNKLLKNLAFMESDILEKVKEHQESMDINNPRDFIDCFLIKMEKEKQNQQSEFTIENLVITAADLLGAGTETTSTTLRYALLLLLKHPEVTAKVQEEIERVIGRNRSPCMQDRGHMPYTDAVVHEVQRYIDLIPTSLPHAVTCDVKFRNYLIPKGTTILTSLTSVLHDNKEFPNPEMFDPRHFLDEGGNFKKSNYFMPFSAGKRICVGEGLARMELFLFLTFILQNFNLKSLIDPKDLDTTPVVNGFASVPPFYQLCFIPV
Procedure: as §1

CYP 2C9 = target: T4, CYP 2C9 (Homo sapiens, UniProt P11712); assay: CYP inhibition, E. coli CYPEX membranes; assay type: in vitro ADME; conditions: specific probe substrates
T4 construct: purchased CYPEX; host or cells: E. coli
T4 sequence (P11712 whole entry): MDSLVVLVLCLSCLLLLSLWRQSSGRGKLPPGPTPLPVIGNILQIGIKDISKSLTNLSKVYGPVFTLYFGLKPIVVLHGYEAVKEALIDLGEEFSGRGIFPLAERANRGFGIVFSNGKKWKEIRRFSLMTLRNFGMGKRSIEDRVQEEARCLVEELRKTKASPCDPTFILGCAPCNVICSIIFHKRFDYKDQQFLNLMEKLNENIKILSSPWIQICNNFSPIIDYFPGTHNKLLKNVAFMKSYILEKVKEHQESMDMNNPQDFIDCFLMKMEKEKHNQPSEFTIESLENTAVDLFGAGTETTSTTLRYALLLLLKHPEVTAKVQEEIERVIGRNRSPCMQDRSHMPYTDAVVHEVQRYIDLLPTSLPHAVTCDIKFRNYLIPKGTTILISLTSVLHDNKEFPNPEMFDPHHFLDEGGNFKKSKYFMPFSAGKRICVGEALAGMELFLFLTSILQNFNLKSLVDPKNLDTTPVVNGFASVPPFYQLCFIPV
Procedure: as §1

CYP 2D6 = target: T5, CYP 2D6 (Homo sapiens, UniProt P10635); assay: CYP inhibition, E. coli CYPEX membranes; assay type: in vitro ADME; conditions: specific probe substrates
T5 construct: purchased CYPEX; host or cells: E. coli
T5 sequence (P10635 whole entry): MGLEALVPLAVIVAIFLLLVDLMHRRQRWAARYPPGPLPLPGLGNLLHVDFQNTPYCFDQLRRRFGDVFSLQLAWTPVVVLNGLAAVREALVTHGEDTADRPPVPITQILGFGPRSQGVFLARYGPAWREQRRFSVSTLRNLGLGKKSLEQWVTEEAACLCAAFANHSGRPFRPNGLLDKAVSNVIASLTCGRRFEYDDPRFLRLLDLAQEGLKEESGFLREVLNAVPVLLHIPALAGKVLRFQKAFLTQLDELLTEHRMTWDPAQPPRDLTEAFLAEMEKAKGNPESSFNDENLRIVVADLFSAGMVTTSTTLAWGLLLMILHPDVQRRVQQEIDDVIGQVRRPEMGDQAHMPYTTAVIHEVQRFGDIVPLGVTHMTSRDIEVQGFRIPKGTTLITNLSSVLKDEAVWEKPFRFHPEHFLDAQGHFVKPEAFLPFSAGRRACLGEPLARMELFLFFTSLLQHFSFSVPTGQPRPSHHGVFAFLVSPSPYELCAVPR
Procedure: as §1

CYP 3A4 = target: T6, CYP 3A4 (Homo sapiens, UniProt P08684); assay: CYP inhibition, E. coli CYPEX membranes; assay type: in vitro ADME; conditions: specific probe substrates
T6 construct: purchased CYPEX; host or cells: E. coli
T6 sequence (P08684 whole entry): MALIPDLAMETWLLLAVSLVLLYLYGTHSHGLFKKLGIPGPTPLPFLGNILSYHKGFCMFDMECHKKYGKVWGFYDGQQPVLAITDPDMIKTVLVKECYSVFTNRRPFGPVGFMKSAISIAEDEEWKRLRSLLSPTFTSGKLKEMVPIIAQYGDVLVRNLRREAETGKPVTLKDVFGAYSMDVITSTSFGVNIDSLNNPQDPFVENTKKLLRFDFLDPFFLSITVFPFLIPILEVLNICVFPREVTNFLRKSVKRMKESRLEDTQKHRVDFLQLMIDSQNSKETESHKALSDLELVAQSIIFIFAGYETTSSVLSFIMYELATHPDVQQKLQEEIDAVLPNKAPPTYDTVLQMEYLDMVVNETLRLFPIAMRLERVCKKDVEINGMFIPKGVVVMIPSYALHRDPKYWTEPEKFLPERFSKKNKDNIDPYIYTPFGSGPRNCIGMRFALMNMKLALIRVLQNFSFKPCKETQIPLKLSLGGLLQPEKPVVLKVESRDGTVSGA
Procedure: as §1

TK6 cells = assay: In vitro micronucleus assay; assay type: cell-based; design: relative increase in cell count (RICC): dose or concentration left out as unconfirmed; conditions: for relative increase in cell count (RICC): vs concurrent negative control
From the text: The purpose of the in vitro micronucleus assay is to assess the ability of the test item to cause chromosome or spindle damage, or to interfere with the cell cycle, in ways which lead to the formation of micronuclei in the cytoplasm of TK6 cells. Chromosome defects are recognised as being the basis of a number of human genetic diseases. Micronuclei (MN) are the result of chromosome fragments or whole chromosomes remaining in the cytoplasm and not being incorporated into the nuclei of newly formed cells. These arise from damage to chromosomes leading to acentric fragments which cannot attach to the mitotic spindle; damage to the spindle apparatus preventing a chromosome from attaching to it or other interference with cell division. Assays were performed in the presence and absence of an exogenous mammalian oxidative metabolising system (S-9 mix, a liver post-mitochondrial fraction derived from the livers of Aroclor 1254 treated rats), to mimic mammalian metabolism. Cells were exposed to the test item for 3 hours and sampled 44 hours after the beginning of treatment. As a number of chemicals have been reported as only exerting positive effects following prolonged treatment, a continuous treatment of 27 hours in the absence of S-9 mix was also included. This was equivalent to 1.5 to 2.0 times the average generation time of cultured cells used in the assay. The test methodology was based on established procedures for in vitro micronucleus testing.
N,N-dimethyl-4-((6-oxopyrimidin-1(6H)-yl)methyl)benzamide was tested up to the regulatory maximum dose level of 1 mM […] in all treatments.

T1 sequence (P01009 25-418): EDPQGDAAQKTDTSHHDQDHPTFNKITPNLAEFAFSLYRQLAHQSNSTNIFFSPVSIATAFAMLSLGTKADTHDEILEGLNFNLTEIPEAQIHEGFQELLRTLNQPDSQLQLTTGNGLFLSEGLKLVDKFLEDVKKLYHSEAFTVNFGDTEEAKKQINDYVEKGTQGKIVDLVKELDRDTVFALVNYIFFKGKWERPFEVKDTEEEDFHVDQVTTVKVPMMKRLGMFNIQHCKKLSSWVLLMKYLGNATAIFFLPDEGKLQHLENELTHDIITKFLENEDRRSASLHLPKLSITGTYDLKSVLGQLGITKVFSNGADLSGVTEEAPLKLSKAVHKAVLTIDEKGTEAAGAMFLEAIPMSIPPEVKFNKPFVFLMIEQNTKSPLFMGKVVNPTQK

**Q.** With `CN(C)C(=O)c1ccc(Cn2cnccc2=O)cc1` [N,N-dimethyl-4-((6-oxopyrimidin-1(6H)-yl)methyl)benzamide] as the compound, how does the “secretion of M A1AT as measured by ELISA” value (human M A1AT) read?
**A.** The value was “does not stimulate secretion of M A1AT”.

**Q.** What about the IC50 (CYP 1A2) of the same compound?
**A.** The IC50 was greater than 50 µM.

**Q.** What about the IC50 (CYP 2C19) of the same compound?
**A.** The IC50 was greater than 50 µM.

**Q.** And the IC50 (CYP 2C9)?
**A.** Its IC50 is greater than 50 µM.

**Q.** And the IC50 (CYP 2D6)?
**A.** Its IC50 is greater than 50 µM.

**Q.** And the IC50 (CYP 3A4)?
**A.** Its IC50 is greater than 50 µM.

**Q.** What about the “relative increase in cell count (RICC)” value (TK6 cells; absence of S-9 mix, 3 hour treatment) of the same compound?
**A.** Its value is 98%.

**Q.** And the “relative increase in cell count (RICC)” value (TK6 cells; absence of S-9 mix, 27 hour treatment)?
**A.** Its value is 74%.

**Q.** And the “relative increase in cell count (RICC)” value (TK6 cells; presence of S-9 mix, 3 hour treatment)?
**A.** Its value is 105%.

**Q.** And the clastogenicity / aneugenicity (TK6 cells; presence or absence of S 9 mix)?
**A.** Its clastogenicity / aneugenicity is “neither clastogenic nor aneugenic”.

**Q.** What about the cytotoxicity (TK6 cells; up to 1 mM, 27 hour treatment only) of the same compound?
**A.** The cytotoxicity was “only slight cytotoxicity”.

**Q.** And the “percentage MN (% MN)” value (TK6 cells; with S-9 mix 3 hour, without S-9 mix 3 hour or 27 hour)?
**A.** The value was “no statistically significant increases”.
